Assay results from patent US20100279969A1, “AZIDO PURINE NUCLEOSIDES FOR TREATMENT OF VIRAL INFECTIONS” (priority 2007, published 2010).

Tests used:
HepG2 cells = HepG2 cells incubated with 10 μM; cited from earlier work
[1] = tested on: HIV-1AZT7 (M41L/D67N/K70R/T215F/K219Q); assay: Drug susceptibility assay against drug-resistant HIV, fold resistance; type: cell-based; details: EC50 for mutant HIV-1 divided by EC50 for WT HIV-1
Procedure: At 48 h post-infection, a cell lysis buffer and luminescent substrate (Gal-Screen; Tropix/Applied Biosystems) was added to each well, and relative light unit values were determined using a luminometer (ThermoLabSystems, Waltham, Mass.).
Drug susceptibility assays were performed using the single- and multiple-replication-cycle assays also described above.

HIV-1 RT containing TAMS = details: cited from earlier work
adenosine deaminase = type: in vitro ADME; details: 7 minutes with 0.002 units of enzyme; 50 μM, pH 7.4, 25° C.
Procedure: To determine the propensity for deamination of the APN nucleosides by adenosine deaminase, compounds were incubated with the commercially available purified enzyme, and the reaction was followed spectrophotometrically. Reaction conditions were 50 mM potassium phosphate, pH 7.4, with 50 μM APN nucleoside in 0.5 mL at 25° C. Reaction time was 7 minutes with 0.002 units of enzyme and 120 minutes with 0.2 units of enzyme. (The unit definition of adenosine deaminase is one unit will deaminate 1.0 μmol of adenosine to inosine per minute at pH 7.5 at 25° C.) Deoxyadenosine was the positive control which was 59% deaminated under the given conditions in 7 minutes with 0.002 units of enzyme. Deoxyguanosine was the negative control. Optical density was measured at 265 nm or 285 nm. The difference in optical density between the beginning and the end of the experiment was divided by the extinction coefficient then multiplied by the volume of the reaction to determine the number of mols of substrate transformed into product. Mols of product were divided by mols of substrate equivalent to a 100% complete reaction then multiplied by 100 to obtain percent deamination. The limit of detection was 0.001 optical density units.

## O=c1[nH]c(=O)n([C@@H]2O[C@H](CO)[C@@H](O)[C@@H]2F)cc1I [fialuridine, 1,2′-deoxy-2′-fluoro-1-D-arabinofuranosly-5-iodo-uracil]
HepG2 cells
  mitochondrial morphology in electron micrographs: enlarged mitochondria with morphological changes consistent with mitochondrial dysfunction

## Cc1cn([C@H]2C[C@H](N=[N+]=[N-])[C@@H](CO)O2)c(=O)[nH]c1=O [AZT, 3′-azido-3′-deoxythymidine]
[1]
  fold resistance: > 500 fold

## Cc1cn([C@H]2C[C@H](N=[N+]=[N-])[C@@H](COP(=O)(O)O)O2)c(=O)[nH]c1=O [AZT-MP]
HIV-1 RT containing TAMS
  lower sensitivity of excision to inhibition by the next-correct dNTP than other NRTI analogs that lack a 3′-azido group: > 50 fold

## Nc1ncnc2c1ncn2[C@H]1C[C@H](O)[C@@H](CO)O1 [Deoxyadenosine]
Adenosine deaminase
  percent deamination: 59%
